Like-named read-outs stand apart in the source and are kept apart here.
How the values were obtained:
[1] = system: primary human dermal fibroblasts (HDFs)
Description: In our efforts to identify novel factors that could prevent skin cell senescence, we developed a screening process to identify new modulators of the protective role of sirtuins in UV-induced senescence. For this purpose, we established a culture of primary human dermal fibroblasts (HDFs). […] Our first step in the screening was to establish the optimal concentrations of these compounds in the case of HDFs. […] Once established, we took these parameters into account to decide the specific working range of concentrations for each compound.
Human dermal fibroblasts (HDFs) (Promocell, Germany) from 40-year old Caucasian women were used as the in vitro model for compound viability and efficacy screening. Cells were cultured in Dulbecco's modified eagle medium (DMEM) low glucose (Biowest, France) supplemented with 10% fetal bovine serum (FBS) (Capricorn Scientific, Germany) and 10 U/mL penicillin/streptomycin (Biowest, France) in a humidified incubator at 37° C and 5% CO2. For cell passage, cells at 80% confluence were trypsinized and plated at 60% confluence. Cells between passage 13 and 18 were used for the assays. For the SIRT1 in vitro assay, HEK293 cells (ATCC, USA), used to transfect and immunoprecipitate SIRT1 protein, were grown in DMEM high glucose (Thermo Fisher Scientific, USA), supplemented with 10% FBS in a humidified incubator at 37° C and 5% CO2. The following experiments were all performed in triplicate.
(§1) The protocol for senescence induction using UVB irradiation is described in the Supplementary Methods. SA-β-Gal staining, WST-1, sulforhodamine B (SRB) and trypan blue assays were performed as previously described. For the siRNA experiments, the protocol for senescence induction using UVB irradiation was the same as in the Supplementary Methods. Specific siRNA (Horizon discovery, UK) for SIRT1, SIRT2, SIRT6, BiP or scramble siRNA were incubated for 6 hours before each irradiation step.

[2] = system: H4K16ac (the target of SIRT1 and SIRT2); assay: Sirtuin activity assay in HDF: H4K16ac levels (Western blot); assay type: cell-based, human; conditions: HDF treated 24h; for SIRT1,2 H4K16ac: Figure 1B; on SIRT1,2 H4K16ac: key: ↑: increase; ↓: decrease; hyphens that indicate no effect (-)
Experimental: (§2) Figure 1 (A) Schematic representation of the compound testing for sirtuin activity evaluation in HDF. Cells were treated with or without the compounds for 24h and harvested for analysis. […] (C) Western Blot analysis and (D) quantification of H4K16ac and H3K9ac levels in cells treated with Resveratrol or Shikimic acid at the indicated concentrations. H4K16 and H3K9 levels were normalized to H4 and H3 levels respectively. Student T-test, *p<0.05, **p<0.01, ***p<0.001.
(§3) HDFs were plated in 100x20 mm2 cell culture plates and after 24h, fresh cell culture medium containing the compounds was added. After 24h, cells were detached with cell scrapers, harvested, and processed for qPCR or western blot.
(§4) Protein levels were analyzed as previously described. Cells were directly lysed in 1x Laemmli Buffer (Bio-Rad, USA), incubated at 95° C and centrifuged. Supernatant was subjected to SDS-polyacrylamide gel electrophoresis, and successive steps were performed as described. The list of antibodies used is included in Supplementary Table 2.

[3] = system: H3K9ac (the target of SIRT1, SIRT2 and SIRT6); assay: Sirtuin activity assay in HDF: H3K9ac levels (Western blot); assay type: cell-based, human; conditions: HDF treated 24h; for SIRT1,2,6 H3K9ac: Figure 1B; on SIRT1,2,6 H3K9ac: key: ↑: increase; ↓: decrease; hyphens that indicate no effect (-)
Experimental: as §2, §3, §4

[4] = system: UVB-irradiated human dermal fibroblasts (HDFs); assay: UVB-induced senescence assay: SA-β-Gal staining; assay type: cell-based; conditions: for β-Gal: HDF, 2 cycles of UVB, compound day 1 to 7, Figure 2B; for prevention of UV-induced cellular senescence: SA-β-Gal and HAS2 markers; on β-Gal: key: ↑: increase; ↓: decrease; hyphens that indicate no effect (-)
Experimental: (§5) In the second approach, we established a method for inducing senescence in these cells with 2 cycles of UVB irradiation 72h apart (Figure 2A). The use of UVA to induce senescence was discarded due to its considerably longer time requirement, being unsuitable to screen 30 compounds within a reasonable period. Cells were treated with these compounds throughout the duration of the assay and cellular senescence was monitored with two markers: accumulation of SA-β-galactosidase (SA-β-Gal) activity, and the decrease in expression of HAS2 (hyaluronic acid synthase 2), a previously reported marker of skin senescence.
(§6) Figure 2 (A) Schematic representation of the protocol for senescence induction using UVB irradiation. Cells were treated -/+ the compounds from day 1 to 7 after seeding, irradiated with UVB on days 2 and 5 and harvested for analysis on day 7. […] (C) Phase-contrast (left column) and bright field (right column) microscope images of SA-β-Gal staining showing non-irradiated cells, UVB-irradiated cells non-treated and treated with Gallic acid or Shikimic acid at the indicated concentrations. (D) Percentage of SA-β-Gal positive cells and (E) Relative HAS2 mRNA levels in non-irradiated cells, UVB-irradiated cells and UVB-irradiated cells treated with Gallic acid or Shikimic acid at the indicated concentrations. Student T-test, *p<0.05, **p<0.01, ***p<0.001.
as §1
(§7) Senescence induction by UVB irradiation For the non-irradiation control conditions, HDF were […]
(§8) After 24h, culture medium was removed and well plates. After 24h, culture medium was removed replaced by fresh cell culture medium containing the and replaced with fresh cell culture medium containing compounds at different concentrations. After 24h, the compounds at different concentrations. […]
(§9) cell culture medium was removed, and cells were cells/plate in fresh cell culture medium containing the irradiated at 25 mJ/cm2 of UVB light (312 nm) in a Bio- compound in 6-well plates. After 3 days, cells were […]
(§10) amount of PBS. PBS was then removed and fresh cell fresh cell culture medium containing the compound in culture medium with the compound was added to each 6-well plates. After 2 days, cells were processed well. After 3 days, cells were irradiated again under the according to the qPCR, β-Gal staining, apoptosis, cell same conditions. After 2 days, cells were processed cycle or immunofluorescence protocols. according to the qPCR, β-Gal staining, apoptosis, cell cycle or immunofluorescence protocols.

[5] = system: HAS2 (hyaluronic acid synthase 2); assay: UVB-induced senescence assay: HAS2 gene expression (qPCR); assay type: cell-based, human; conditions: HDF, 2 cycles of UVB, compound day 1 to 7, Figure 2B; further: key: ↑: increase; ↓: decrease; hyphens that indicate no effect (-)
Experimental: as §5, §6
RNA was extracted from cell pellets using the Total RNA Purification Kit (Norgen, Canada), according to the manufacturer’s protocol. Extracted RNA was quantified using a NanoDrop® ND-1000 UV-Vis Spectrophotometer (Thermo Fisher Scientific, USA) and 300 ng of RNA were retrotranscribed to cDNA using the PrimeScriptTM RT reagent kit (Takara Bio Inc., Japan). cDNA was diluted 1/10 in ultrapure water and qPCR mix was prepared by adding cDNA (12 ng), SYBR green supermix (Bio Rad, USA), forward and reverse primers (0.2μM). The primers and their respective sequences are listed in Supplementary Table 1. qPCR protocol included one step at 95° C for 30 s, 40 cycles at 95° C for 10s, and 60° C for 1min. The results were analyzed with Bio-Rad CFX Manager software. BACT was used as a housekeeping gene to normalize gene expression.
as §7, §8, §9, §10

[6] = HDFs, WST-1 cell viability test
[7] = HDFs, WST-1 cell viability test, maximum non-cytotoxic dose

Compound | LD50 ([1]; female, human) | Max. non-cyt. doses ([1]; female, human) | SIRT1,2 H4K16ac [2] | SIRT1,2,6 H3K9ac [3] | β-Gal [4] | HAS2 expression [5] | effect on H4K16ac levels [2] | effect on H3K9ac levels [3] | prevention of UV-induced cellular senescence ([4]; UVB-irradiated HDF) | SA-β-Gal accumulation/staining ([4]; UVB-irradiated HDF) | Max. non-cyt. doses [1] | LD50 [1, 6] | Max. non-cyt. doses [1, 7]
Cc1ncc(CO)c(CO)c1O [Pyridoxine, reference compound] | 16.92 mM | 5 mM | - | - | - | - |  |  |  |  |  |  | 
COc1cc(C(=O)O)cc(OC)c1O [Syringic acid] | 3.65 mM | 1 mM | - | - | - | - |  |  |  |  |  |  | 
CC(C)(CO)[C@@H](O)C(=O)NCCCO [Dexpanthenol, reference compound] | 262.48 mM | 100 mM |  |  | - | - | induced a similar effect on both targets | induced a similar effect on both targets | did not prevent cellular senescence |  |  |  | 
Oc1ccc(/C=C/c2cc(O)cc(O)c2)cc1 [Resveratrol, reference compound] | 0.173 mM | 0.05 mM |  |  |  | - | induced a similar effect on both targets | induced a similar effect on both targets |  | increased SA-β-Gal staining |  |  | 
CC1=NCC[C@@H](C(=O)O)N1 [Ectoine] |  |  | - |  | - | - |  | reduced the levels of H3K9ac only |  |  | 300 mM | 359.12 mM | 
C/C=C/C(=O)C1=C(C)C=CCC1(C)C [Damascenone] |  |  | - | - | - | - |  |  |  |  | 0.05 mM | 0.121 mM | 
COc1cc(C=O)ccc1O [Vanillin] | 5.912 mM | 1 mM | - | - | - | - |  |  |  |  |  |  | 
O=C(O)c1ccccc1O [Salicylic acid, reference compound] |  |  | - | - | - | - |  |  |  |  |  |  | 1 mM
Oc1ccc2c(c1)OCO2 [Sesamol] |  |  |  |  |  | - | induced a similar effect on both targets | induced a similar effect on both targets | did not prevent cellular senescence |  |  | 4.358 mM | 0.5 mM
C/C(=C\CNc1ncnc2[nH]cnc12)CO [Zeatin] |  |  | - |  | - | - |  | reduced the levels of H3K9ac only |  |  |  | 2.462 mM | 1 mM
C=C1CC[C@@H]2[C@](C)(CO)[C@H](O)CC[C@@]2(C)[C@@H]1C/C=C1/C(=O)OC[C@H]1O [Andrographolide] |  |  |  |  | - | - | induced a similar effect on both targets | induced a similar effect on both targets | did not prevent cellular senescence |  |  | 0.124 mM | 0.01 mM
